US20030199523A1, “Heterocyclic calcium in channel blockers” (priority 2002, published 2003)

Experiments:
Format in all cases: cell-based
[1] = target: T1, P/Q-type channels (α1A+α2δ+β1b) (Homo sapiens, UniProt O00555); test: Whole cell patch clamp block of P/Q-type calcium channels transiently expressed in HEK 293 cells; conditions: step to +20 mV from holding potential −80 mV, 0.1 Hz, 5 mM barium external solution
T1 construct: expressed in transfected cells; host or cells: HEK 293 (transient)
Method: (§1) The method of Example 1 was followed with slight modifications as will be apparent from the description below.
(§2) N-type calcium channel blocking activity was assayed in human embryonic kidney cells, HEK 293, stably transfected with the rat brain N-type calcium channel subunits (α1B+α2δ+β1b cDNA subunits). Alternatively, N-type calcium channels (α1B+α2δ+β1b cDNA subunits), L-type channels (α1C+α2δ+β1b cDNA subunits) and P/Q-type channels (α1A+α2δ+β1b cDNA subunits) were transiently expressed in HEK 293 cells. Briefly, cells were cultured in Dulbecco's modified eagle medium (DMEM) supplemented with 10% fetal bovine serum, 200 U/ml penicillin and 0.2 mg/ml streptomycin at 37° C. with 5% CO2. At 85% confluency cells were split with 0.25% trypsin/1 mM EDTA and plated at 10% confluency on glass coverslips. At 12 hours the medium was replaced and the cells transiently transfected using a standard calcium phosphate protocol and the appropriate calcium channel cDNAs. Fresh DMEM was supplied and the cells transferred to 28° C./ 5% CO2. Cells were incubated for 1 to 2 days to whole cell recording.
(§3) Whole cell patch clamp experiments were performed using an Axopatch 200B amplifier (Axon Instruments, Burlingame, Calif.) linked to a personal computer equipped with pCLAMP software. […] Data were analyzed using Clampfit (Axon Instruments) and SigmaPlot 4.0 (Jandel Scientific).

[2] = target: T2, L-type channels (α1C+α2δ+β1b) (Homo sapiens, UniProt Q13936); test: Whole cell patch clamp block of L-type calcium channels transiently expressed in HEK 293 cells; conditions: step to +20 mV from holding potential −80 mV, 0.1 Hz, 5 mM barium external solution
T2 construct: expressed in transfected cells; host or cells: HEK 293 (transient)
Method: as §1, §2, §3

[3] = target: T3, rat brain N-type calcium channel (α1B+α2δ+β1b) (Rattus norvegicus, UniProt Q02294); test: Whole cell patch clamp block of N-type calcium channels expressed in HEK 293 cells; conditions: step to +20 mV from holding potential −80 mV, 0.1 Hz, 5 mM barium external solution
T3 construct: expressed in transfected cells
Method: (§4) Antagonist activity was measured using whole cell patch recordings on human embryonic kidney cells either stably or transiently expressing rat α1B+α2b+β1b channels (N-type channels) with 5 mM barium as a charge carrier.
(§5) For transient expression, host cells, such as human embryonic kidney cells, HEK 293 (ATCC# CRL 1573) were grown in standard DMEM medium supplemented with 2 mM glutamine and 10% fetal bovine serum. HEK 293 cells were transfected by a standard calcium-phosphate-DNA coprecipitation method using the rat α1B+β1b+α2δ N-type calcium channel subunits in a vertebrate expression vector (for example, see Current Protocols in Molecular Biology).
(§6) After an incubation period of from 24 to 72 hrs the culture medium was removed and replaced with external recording solution (see below). Whole cell patch clamp experiments were performed using an Axopatch 200B amplifier (Axon Instruments, Burlingame, Calif.) linked to an IBM compatible personal computer equipped with pCLAMP software. Borosilicate glass patch pipettes (Sutter Instrument Co., Novato, Calif.) were polished (Microforge, Narishige, Japan) to a resistance of about 4 MΩ when filled with cesium methanesulfonate internal solution (composition in MM: 109 CsCH3SO4, 4 MgCl2, 9 EGTA, 9 HEPES, pH 7.2). Cells were bathed in 5 mM Ba^++ (in mM: 5 BaCl2, 1 MgCl2, 10 HEPES, 40 tetraethylammonium chloride, 10 glucose, 87.5 CsCl pH 7.2). Current data shown were elicited by a train of 100 ms test pulses at 0.066 Hz from −100 mV and/or −80 mV to various potentials (min. −20 mV, max. +30 mV). Drugs were perfused directly into the vicinity of the cells using a microperfusion system.
(§7) Normalized dose-response curves were fit (Sigmaplot 4.0, SPSS Inc., Chicago, Ill.) by the Hill equation to determine IC50 values. Steady-state inactivation curves were plotted as the normalized test pulse amplitude following 5 s inactivating prepulses at +10 mV increments. Inactivation curves were fit (Sigmaplot 4.0) with the Boltzman equation, Ipeak (normalized)=1/(1+exp((V−Vh)z/25.6)), where V and Vh are the conditioning and half inactivation potentials, respectively, and z is the slope factor.
as §1
(§8) N-type calcium channel blocking activity was assayed in human embryonic kidney cells, HEK 293, stably transfected with the rat brain N-type calcium channel subunits (α1B+α2δ+β1b cDNA subunits). Alternatively, N-type calcium channels (α1B+α2δ+β1b cDNA subunits), L-type channels (α1C+α2δ+β1b cDNA subunits) and P/Q-type channels (α1A+α2δ+β1b cDNA subunits) were transiently expressed in HEK 293 cells. […]

[4] = test system: rat brain N-type calcium channel (α1B+α2δ+β1b); test: as above; conditions: N-type, L-type and P/Q-type channels compared
Method: as §4, §5, §6, §7, §1, §8

T2 sequence (Q13936 whole entry): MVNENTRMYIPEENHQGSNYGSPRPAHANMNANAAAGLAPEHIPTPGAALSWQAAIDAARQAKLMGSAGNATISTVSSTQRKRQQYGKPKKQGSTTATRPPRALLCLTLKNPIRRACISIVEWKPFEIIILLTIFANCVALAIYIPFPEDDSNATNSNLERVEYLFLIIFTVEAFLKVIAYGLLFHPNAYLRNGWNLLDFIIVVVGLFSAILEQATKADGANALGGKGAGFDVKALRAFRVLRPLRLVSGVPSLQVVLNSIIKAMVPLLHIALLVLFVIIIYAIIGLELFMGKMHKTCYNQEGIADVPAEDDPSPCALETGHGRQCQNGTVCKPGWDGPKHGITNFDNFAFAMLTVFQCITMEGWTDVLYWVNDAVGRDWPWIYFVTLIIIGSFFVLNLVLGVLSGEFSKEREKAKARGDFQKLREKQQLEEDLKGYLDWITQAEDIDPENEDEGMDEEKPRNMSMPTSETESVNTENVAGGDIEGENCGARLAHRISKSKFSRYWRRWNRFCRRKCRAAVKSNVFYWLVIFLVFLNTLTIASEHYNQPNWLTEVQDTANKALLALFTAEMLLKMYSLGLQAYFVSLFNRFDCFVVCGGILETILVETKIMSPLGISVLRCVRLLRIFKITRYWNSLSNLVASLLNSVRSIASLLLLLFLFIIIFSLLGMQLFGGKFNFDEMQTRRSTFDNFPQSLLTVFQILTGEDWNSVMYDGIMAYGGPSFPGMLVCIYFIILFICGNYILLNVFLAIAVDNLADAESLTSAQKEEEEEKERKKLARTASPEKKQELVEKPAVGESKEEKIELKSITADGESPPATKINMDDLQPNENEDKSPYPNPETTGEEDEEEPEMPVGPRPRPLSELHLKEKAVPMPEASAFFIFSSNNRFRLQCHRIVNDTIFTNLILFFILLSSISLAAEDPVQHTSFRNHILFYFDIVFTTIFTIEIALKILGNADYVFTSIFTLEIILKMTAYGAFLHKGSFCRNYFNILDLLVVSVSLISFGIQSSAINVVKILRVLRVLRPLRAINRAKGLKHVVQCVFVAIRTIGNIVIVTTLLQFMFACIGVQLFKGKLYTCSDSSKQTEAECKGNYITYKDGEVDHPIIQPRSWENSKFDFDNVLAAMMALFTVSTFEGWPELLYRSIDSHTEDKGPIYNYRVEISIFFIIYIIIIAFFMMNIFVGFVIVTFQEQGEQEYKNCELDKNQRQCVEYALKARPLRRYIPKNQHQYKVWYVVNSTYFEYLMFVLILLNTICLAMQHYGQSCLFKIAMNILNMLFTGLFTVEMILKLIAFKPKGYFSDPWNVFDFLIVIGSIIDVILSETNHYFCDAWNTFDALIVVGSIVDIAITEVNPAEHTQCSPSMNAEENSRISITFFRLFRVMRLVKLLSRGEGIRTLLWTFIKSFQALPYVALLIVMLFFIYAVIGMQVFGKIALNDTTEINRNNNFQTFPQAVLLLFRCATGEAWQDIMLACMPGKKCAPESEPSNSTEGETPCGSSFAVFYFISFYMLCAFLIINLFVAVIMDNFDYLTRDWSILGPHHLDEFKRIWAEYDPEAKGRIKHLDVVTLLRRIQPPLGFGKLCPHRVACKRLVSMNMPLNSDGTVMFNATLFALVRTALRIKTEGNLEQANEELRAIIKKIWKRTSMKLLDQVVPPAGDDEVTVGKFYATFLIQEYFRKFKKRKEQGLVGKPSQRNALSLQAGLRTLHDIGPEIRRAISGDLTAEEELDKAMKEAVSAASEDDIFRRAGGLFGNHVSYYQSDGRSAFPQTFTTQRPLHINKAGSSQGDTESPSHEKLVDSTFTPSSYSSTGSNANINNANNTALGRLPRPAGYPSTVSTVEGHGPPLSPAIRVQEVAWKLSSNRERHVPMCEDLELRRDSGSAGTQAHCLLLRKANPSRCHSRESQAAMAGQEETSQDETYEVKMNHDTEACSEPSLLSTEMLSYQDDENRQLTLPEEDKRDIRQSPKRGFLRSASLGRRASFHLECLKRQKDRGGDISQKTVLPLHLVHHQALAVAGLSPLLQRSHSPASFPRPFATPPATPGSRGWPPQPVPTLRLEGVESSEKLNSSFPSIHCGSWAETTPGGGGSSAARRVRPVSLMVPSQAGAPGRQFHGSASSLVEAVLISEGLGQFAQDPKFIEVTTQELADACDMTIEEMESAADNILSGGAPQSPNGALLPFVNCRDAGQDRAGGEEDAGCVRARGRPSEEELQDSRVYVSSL
T3 sequence (Q02294 whole entry): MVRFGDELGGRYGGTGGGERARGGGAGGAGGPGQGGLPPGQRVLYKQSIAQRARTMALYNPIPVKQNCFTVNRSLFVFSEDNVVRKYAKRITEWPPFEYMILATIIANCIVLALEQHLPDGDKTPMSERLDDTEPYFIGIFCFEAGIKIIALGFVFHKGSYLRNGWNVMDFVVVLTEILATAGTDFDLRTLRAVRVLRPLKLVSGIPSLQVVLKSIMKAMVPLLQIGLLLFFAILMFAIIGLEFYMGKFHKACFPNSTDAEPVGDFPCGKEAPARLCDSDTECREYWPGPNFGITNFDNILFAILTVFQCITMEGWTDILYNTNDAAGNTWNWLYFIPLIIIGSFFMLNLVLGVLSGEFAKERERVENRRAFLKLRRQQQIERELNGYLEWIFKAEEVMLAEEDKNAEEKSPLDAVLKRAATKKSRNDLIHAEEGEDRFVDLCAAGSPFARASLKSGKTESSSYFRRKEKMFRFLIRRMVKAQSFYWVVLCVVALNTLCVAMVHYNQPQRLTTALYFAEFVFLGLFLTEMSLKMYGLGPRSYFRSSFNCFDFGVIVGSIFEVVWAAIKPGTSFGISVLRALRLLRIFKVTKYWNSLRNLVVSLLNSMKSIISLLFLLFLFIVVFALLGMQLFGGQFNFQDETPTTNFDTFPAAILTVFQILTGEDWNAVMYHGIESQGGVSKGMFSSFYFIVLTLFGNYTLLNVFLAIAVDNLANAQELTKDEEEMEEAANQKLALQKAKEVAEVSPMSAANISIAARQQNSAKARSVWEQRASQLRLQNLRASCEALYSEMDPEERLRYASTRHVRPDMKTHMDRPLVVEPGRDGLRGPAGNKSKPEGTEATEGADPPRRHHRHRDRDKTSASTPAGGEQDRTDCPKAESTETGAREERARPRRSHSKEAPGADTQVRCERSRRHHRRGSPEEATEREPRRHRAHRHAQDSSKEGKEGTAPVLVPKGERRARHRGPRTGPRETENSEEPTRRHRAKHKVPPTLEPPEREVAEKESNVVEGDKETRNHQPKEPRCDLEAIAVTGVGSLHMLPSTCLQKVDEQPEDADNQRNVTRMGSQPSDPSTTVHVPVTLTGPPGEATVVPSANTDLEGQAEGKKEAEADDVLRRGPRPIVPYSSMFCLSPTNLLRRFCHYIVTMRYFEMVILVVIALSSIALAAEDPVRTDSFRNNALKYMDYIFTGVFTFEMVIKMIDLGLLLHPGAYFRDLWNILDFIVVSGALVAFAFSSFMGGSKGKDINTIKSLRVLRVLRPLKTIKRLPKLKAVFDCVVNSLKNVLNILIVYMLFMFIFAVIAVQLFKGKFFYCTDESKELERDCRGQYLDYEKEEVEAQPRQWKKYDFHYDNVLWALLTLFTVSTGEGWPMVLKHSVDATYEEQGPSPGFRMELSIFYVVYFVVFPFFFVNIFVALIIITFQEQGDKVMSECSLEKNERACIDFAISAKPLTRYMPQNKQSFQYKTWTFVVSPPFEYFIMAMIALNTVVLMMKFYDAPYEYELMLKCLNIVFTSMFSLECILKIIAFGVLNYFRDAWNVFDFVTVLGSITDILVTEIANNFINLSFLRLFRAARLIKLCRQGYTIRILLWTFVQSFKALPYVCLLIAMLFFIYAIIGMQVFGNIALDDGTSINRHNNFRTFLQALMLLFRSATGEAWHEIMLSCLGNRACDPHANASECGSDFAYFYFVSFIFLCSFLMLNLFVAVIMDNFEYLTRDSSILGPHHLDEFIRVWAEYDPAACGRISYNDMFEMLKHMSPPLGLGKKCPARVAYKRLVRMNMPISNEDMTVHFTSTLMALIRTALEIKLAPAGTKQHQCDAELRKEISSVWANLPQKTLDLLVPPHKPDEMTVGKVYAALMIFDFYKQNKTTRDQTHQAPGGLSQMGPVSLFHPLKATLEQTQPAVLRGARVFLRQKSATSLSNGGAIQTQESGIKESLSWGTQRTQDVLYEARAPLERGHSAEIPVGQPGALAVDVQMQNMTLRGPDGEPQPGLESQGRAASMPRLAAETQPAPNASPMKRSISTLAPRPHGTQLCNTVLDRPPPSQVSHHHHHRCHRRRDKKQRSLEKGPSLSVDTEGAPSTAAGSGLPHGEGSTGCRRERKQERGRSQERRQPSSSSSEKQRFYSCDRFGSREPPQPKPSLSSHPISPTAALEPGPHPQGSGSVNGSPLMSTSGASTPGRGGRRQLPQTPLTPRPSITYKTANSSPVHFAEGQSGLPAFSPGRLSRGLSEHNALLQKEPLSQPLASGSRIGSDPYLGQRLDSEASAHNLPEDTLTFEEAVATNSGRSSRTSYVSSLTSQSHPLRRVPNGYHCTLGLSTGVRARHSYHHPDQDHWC

IC50 [1] [µM] | IC50 [2] [µM] | IC50 [3] [µM] | Compound | selectivity for N-type channels versus L-type and P/Q-type (in words) [4]
6.4 | 2.06 | 0.14 | O=C(CCOc1ccc(Cl)cc1Cl)Nc1nnc(C(F)(F)F)s1 [NT044, N-2-(5-trifluoromethyl-1,3,4-thiadiazolyl)-3-(2,4-dichlorophenoxy) propionyl amide] | somewhat selective for N-type channels
6.8 | 1.91 | 0.13 | O=C(COC(c1ccc(Cl)cc1)c1ccc(Cl)cc1)Nc1ncc([N+](=O)[O-])s1 [NT051] | somewhat selective for N-type channels
